Reference: patent US8119656B2, “Inhibitors of the influenza virus non-structural 1 protein” (The Board of Regents of the University of Texas System, priority 2007, dated 2012)

Tests used:
NS1 protein = biological target: T1, NS1 protein (Influenza A virus, UniProt P03496); assay type: cell-based
T1 construct: expressed in transfected cells; host or cells: 293T cells

influenza virus = experiment: Inhibition of virus killing in human bronchial epithelial cells (infection assay); assay type: cell-based; details: purity and concentration verified
Description: FIG. 7. […] Analogs in the library are related structures which provide structure-activity information. The z score is the compound value minus the experimental mean value divided by the standard deviation of the experimental population.
It is important to note, that with the exception of one compound (8 in FIG. 7), the values shown are from the screening experiments using compounds for which only estimated concentrations and solubilities were available. Inhibitor 8 has been purchased in large quantities from Chemical Diversity Laboratories (San Diego, Calif.) and its purity and concentration verified prior to obtaining the data on inhibition of virus killing in human bronchial epithelial cells. […] It is possible that some of the other compounds will show improvements in potency once pure stocks of known concentration are obtained (see FIG. 7). […] From these 71 inhibitors, 8 different compound families were chosen for further analyses (see FIG. 7).

influenza virus (WSN) = assay type: cell-based
[1] = test system: mRNA export block induced by influenza virus infection and mediated by NS1; assay type: cell-based, influenza virus (WSN)
firefly luciferase = assay type: cell-based

T1 sequence (P03496 whole entry): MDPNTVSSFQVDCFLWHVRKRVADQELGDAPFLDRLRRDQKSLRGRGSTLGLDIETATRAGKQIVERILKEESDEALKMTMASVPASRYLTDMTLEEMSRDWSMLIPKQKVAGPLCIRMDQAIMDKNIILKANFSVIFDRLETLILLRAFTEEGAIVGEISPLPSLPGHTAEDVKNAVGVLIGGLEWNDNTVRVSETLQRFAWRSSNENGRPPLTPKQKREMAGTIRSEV

SMILES | WSN HA titer 24H 24 hr (influenza virus (WSN)) | WSN HA titer 24H 36 hr (influenza virus (WSN)) | other results
O=C(O)CCCN1C(=O)c2cccc3c([N+](=O)[O-])ccc(c23)C1=O [Compound 8.0] | 0.50 | 0.50 | Activity in the original screen (NS1 protein): not one of the most active compounds; Potency in the infection assay (influenza virus): most potent in the infection assay
O=C(O)CCCCCN1C(=O)c2cccc3cccc(c23)C1=O [Compound 8.1] | 1.00 | 0.50 | 
O=C(O)CCN1C(=O)c2cccc3c([N+](=O)[O-])ccc(c23)C1=O [Compound 8.2] | 0.25 | 0.50 | 
O=C(O)CCCCCN1C(=O)c2cccc3c(N4CCCCC4)ccc(c23)C1=O [Compound 8.3] | 0.13 | 0.13 | Reversal of mRNA export block ([1]; MDCK cells infected with WSN, FIG. 10 (10 μM, MOI 0.01, 48 h in FIG. 10A)): significantly reverts the mRNA export block; Reversal of mRNA export blockage ([1]; compound at 50 μM, WSN MOI 1, 12 h (FIG. 10B)): significant reversal of mRNA export blockage; Inhibition of Renilla luciferase expression (Renilla luciferase): no effect; Inhibition of NS1 protein compared with compound 8 (NS1 protein): more inhibitory of NS1 protein; Score in the luciferase dependent assay (NS1 protein): did not score; Inhibition of firefly luciferase expression (firefly luciferase): inhibitor of firefly luciferase expression; Inhibition of virus growth compared with compound 8 (influenza virus (WSN)): more inhibitory of virus growth; Potency for inhibiting virus growth among analogs of compound 8 (influenza virus (WSN)): most potent compound for inhibiting virus growth
CCN1C(=O)c2cccc3c([N+](=O)[O-])ccc(c23)C1=O [Compound 8.6] | 0.13 | 0.25 | Inhibition of NS1 protein compared with compound 8 (NS1 protein): more inhibitory of NS1 protein; Inhibition of virus growth compared with compound 8 (influenza virus (WSN)): more inhibitory of virus growth
O=C(O)CCCN1C(=O)c2cccc3cc([N+](=O)[O-])cc(c23)C1=O [Compound 8.9] | 0.50 | 0.50 | 
O=C(O)CCCCCN1C(=O)c2cccc3c([N+](=O)[O-])ccc(c23)C1=O [Compound 8.10] | 0.13 | 0.19 | 
O=C(O)CCN1C(=O)c2cccc3cccc(c23)C1=O [Compound 8.16] | 1.00 | 0.50 | 
